Values after ≈ are worked out from the molar mass of the structure shown.
How the values were obtained:
U-87 MG [1] = assay: Antiproliferative activity against human U87MG cells after 96 hrs by SRB assay; assay type: functional, U-87MG ATCC
U-251 [2] = assay: Antiproliferative activity against human U251 cells after 24 hrs by MTT assay; assay type: functional, cell-based; settings: U-251, 24 h
U-87 MG [3] = assay: Antiproliferative activity against human U87 cells after 48 hrs by MTT assay; assay type: functional, U-87MG ATCC
[4] = Antiproliferative activity against human U373 cells after 5 days by AlamarBlue assay; assay type: functional, cell-based, U-373MG ATCC; settings: U373 MG, 120 h
U138-MG = assay: Antiproliferative activity against human U138MG cells after 5 days by AlamarBlue assay; assay type: functional, cell-based; settings: 120 h
LN-229 [5] = assay: Antiproliferative activity against human LN229 cells after 5 days by AlamarBlue assay; assay type: functional, cell-based; settings: LN-229, 120 h
T98G [6] = assay: Antiproliferative activity against human T98G cells after 5 days by AlamarBlue assay; assay type: functional, cell-based; settings: 120 h
U-87 MG [7] = assay: Antiproliferative activity against human U87 cells after 5 days by AlamarBlue assay; assay type: functional, cell-based, U-87MG ATCC; settings: 120 h
U-251 [8] = assay: Antiproliferative activity against human U251 cells by MTT assay; assay type: functional, cell-based
[9] = Antiproliferative activity against human RN1 cells assessed as reduction in cell viability after 72 hrs by AlamarBlue assay; assay type: functional, cell-based; settings: RN1, 72 h
U-251 [10] = assay: Antiproliferative activity against human U251 cells assessed as reduction in cell viability after 72 hrs in presence of irradiation by AlamarBlue assay; assay type: functional, cell-based; settings: U-251, light or radiation study
[11] = Antiproliferative activity against human RN1 cells assessed as reduction in cell viability after 72 hrs in presence of irradiation by AlamarBlue assay; assay type: functional, cell-based; settings: RN1, light or radiation study
[12] = Antiproliferative activity against human PRT-HU2 cells after 72 hrs by MTS assay; assay type: functional, cell-based
U373 MG = assay: Antiproliferative activity against human U373MG cells after 72 hrs by MTS assay; assay type: functional, cell-based, U-373MG ATCC
U-87 MG [13] = assay: Antiproliferative activity against human U87MG cells after 72 hrs by MTS assay; assay type: functional, cell-based, U-87MG ATCC
T98G [14] = assay: Antiproliferative activity against human T98G cells after 72 hrs by MTS assay; assay type: functional, cell-based
C6 = assay: Antiproliferative activity against rat C6 cells at 50 uM after 24 hrs by MTT assay relative to control; assay type: functional
SNB-19 = assay: Antiproliferative activity against human SNB19 cells after 72 hrs by WST-1 assay; assay type: functional, cell-based; settings: SNB-19, 72 h
U-251 [15] = assay: Antiproliferative activity against human U251MG cells after 120 hrs by SRB assay; assay type: functional, cell-based; settings: U-251, 120 h
U-87 MG [16] = assay: Antiproliferative activity against human U87 cells assessed as reduction in cell viability after 72 hrs by AlamarBlue assay; assay type: functional, cell-based, U-87MG ATCC
U-251 [17] = assay: Antiproliferative activity against human U251 cells assessed as reduction in cell viability after 72 hrs by AlamarBlue assay; assay type: functional, cell-based; settings: U-251, 72 h
U-87 MG [18] = assay: Antiproliferative activity against human U87 cells over-expressing EGFRvIII assessed as reduction in cell viability after 72 hrs by AlamarBlue assay; assay type: functional, cell-based, U-87MG ATCC
U-251 [19] = assay: Antiproliferative activity against human U251 cells after 24 hrs by SRB assay; assay type: functional, cell-based; settings: U-251, 24 h
Histone deacetylase = assay: Inhibition of mouse liver HDAC using Boc-Lys (Ac)-AMC as substrate preincubated for 5 mins followed by substrate addition and measured after 30 mins by fluorescence assay
[20] = Cytotoxicity against patient derived GSC after 96 hrs by CellTiter-Glo assay; assay type: functional, Homo sapiens
U-87 MG [21] = assay: Antiproliferative activity against human U87MG cells after 24 hrs by WST-1 assay; assay type: functional, cell-based, U-87MG ATCC
[22] = Antiproliferative activity against human M059K cells after 48 hrs by WST-1 assay; assay type: functional, cell-based
U-87 MG [23] = assay: Inhibition of cell proliferation of human U87 cells over-expressing EGFRvIII at 5 uM; assay type: functional, U-87MG ATCC
LN-229 [24] = assay: Inhibition of cell proliferation of human LN229 cells at 5 uM; assay type: functional
U-251 [25] = assay: Inhibition of cell proliferation of human U251 cells at 5 uM; assay type: functional

NC1(Cc2ccc(Cl)cc2)CCN(c2ncnc3[nH]ccc23)CC1
GI50 (U-87 MG [1]): 6.3 µM

Cc1ccc(-c2nnc(SCC(=O)N3N=C(c4cccs4)CC3c3ccc(Cl)cc3)o2)cc1 (stereo not drawn)
IC50 (U-251 [2]): 11.9 µM

Cc1nc(=O)c2c(-c3ccccc3)c(C(=O)c3ccccc3)[nH]c2[nH]1
GI50 (U-87 MG [3]): 77 nM

O=C(Nc1ccc([N+](=O)[O-])cc1Cl)c1cc(Cl)ccc1O [NICLOSAMIDE]
IC50 [4]: 300 to 1200 nM
IC50 (U138-MG): 300 to 1200 nM
IC50 (LN-229 [5]): 300 to 1200 nM
IC50 (T98G [6]): 300 to 1200 nM
IC50 (U-87 MG [7]): 300 to 1200 nM

CCN(CC)CCCC(C)Nc1c2ccc(Cl)cc2nc2ccc(OC)cc12 (stereo not drawn) [QUINACRINE]
IC50 (U-251 [8]): 5 µM

COc1cc(COc2ccc(NC(=O)CCCc3ccc(-c4cccnc4F)cc3)cc2)c([N+](=O)[O-])cc1OC
EC50 [9]: 37.4 µM
EC50 (U-251 [10]): 1300 nM
EC50 [11]: 300 nM

Clc1ccccc1CNc1ncnc2c1cnn2CC(Cl)c1ccc(Br)cc1 (stereo not drawn)
IC50 [12]: 14.3 µM
IC50 (U373 MG): 17.9 µM
IC50 (U-87 MG [13]): 14.9 µM
IC50 (T98G [14]): 12.5 µM

Brc1c(Br)c(Br)c2[nH]cnc2c1Br
Activity (C6): 50%

C#CCSc1nc(Cl)nc2nc(SCC#C)n(C)c12
IC50 (SNB-19): 0.07 µg/mL (≈ 0.227 µM)

CN(C)CCN1C(=O)c2cc(NCCc3ccc(O)c(CN(C)C)c3)c3c4c(cc(NCCc5ccc(O)c(CN(C)C)c5)c(c24)C1=O)C(=O)N(CCN(C)C)C3=O
IC50 (U-251 [15]): 33 nM

O=C(CCCc1ccc(-c2cccnc2F)cc1)Nc1ccc(O)cc1
EC50 (U-87 MG [16]): 1400 nM
EC50 (U-251 [17]): 1600 nM
EC50 (U-87 MG [18]): 1700 nM

Cn1cnc2nc(Cl)nc(SCC#CCN3CCCC3)c21
EC50 (SNB-19): 5 µg/mL (≈ 15.5 µM)

COc1ccc2c(c1)c(=O)c(C(=O)Nc1nc3ccccc3s1)cn2CCCCCC(=O)NO
IC50 (U-251 [19]): 800 nM
IC50 (Histone deacetylase): 28 nM

CCN(CC)C(=S)SSC(=S)N(CC)CC
IC50 [20]: 31.1 nM

COc1ccc(/N=C/c2c(O)ccc3c2oc2cc(Cl)c(O)c(Cl)c23)cc1
IC50 (U-87 MG [21]): 25 µM
IC50 [22]: 40 µM

O=C(CCCCCn1cc(C(=O)Nc2nc3ccccc3s2)c(=O)c2ccccc21)NO
IC50 (U-251 [19]): 700 nM
IC50 (Histone deacetylase): 1.5 nM

O=c1[nH]c2ncc(-c3ccc(-c4nc[nH]n4)cc3)nc2n1CCC1CCOCC1
inhibition at 5 µM (U-87 MG [23]): 60%
inhibition at 5 µM (LN-229 [24]): 60%
inhibition at 5 µM (U-251 [25]): 60%
